Our source for the IC50 and EC50 values is patent US9505749B2, “Quinazolinone compounds and derivatives thereof” (AMGEN INC., priority 2012, dated 2016).

Like-named read-outs stand apart in the source and are kept apart here.

The test system of experiment [1] is total β-catenin in SW480 colorectal cells. Briefly: Total β-catenin MSD 96-well plate assay for SW480 cells. The conditions noted are these: Homo sapiens, SW480, read-out: SW480-Total beta-catenin (TBC) IC50 IP.
The test system of experiment [2] is Axin2 accumulation in SW480 cells. In words: Axin2 384 immunofluorescence assay. The format is cell-based. The conditions noted are these: Homo sapiens, read-out: Axin2 384 IF EC50.

For `O=C1Nc2cc(Cl)ccc2C1C1CCN(C(=O)CCCc2nc3ccccc3c(=O)[nH]2)CC1` (racemic) [Example 76, 2-(4-(4-((3S)-6-chloro-2-oxo-2,3-dihydro-1H-indol-3-yl)-1-piperidinyl)-4-oxobutyl)-4(3H)-quinazolinone trifluoroacetic acid and 2-(4-(4-((3R)-6-chloro-2-oxo-2,3-dihydro-1H-indol-3-yl)-1-piperidinyl)-4-oxobutyl)-4(3H)-quinazolinone trifluoroacetic acid], the IC50 in experiment [1] came to 3.02 µM. Moreover, the EC50 in experiment [2] (SW480, 24 h) was 2.95 µM.

Turning to `COc1ccc2c(c1)[nH]c(=O)n2C1CCN(C(=O)CCCc2nc3ccccc3c(=O)[nH]2)CC1` [Example 8, 2-(4-(4-(5-methoxy-2-oxo-2,3-dihydro-1H-benzimidazol-1-yl)-1-piperidinyl)-4-oxobutyl)-4(3H)-quinazolinone], the IC50 in experiment [1] was 0.0454 µM. In addition, the EC50 in experiment [2] (SW480 cells, 24 hours) was 0.0818 µM.

As for `O=C(CCCc1nc2ccccc2c(=O)[nH]1)N[C@H]1CC[C@H](c2nnc(-c3ccccc3)o2)CC1` [Example 10, 4-(4-oxo-3,4-dihydro-2-quinazolinyl)-N-(trans-4-(5-phenyl-1,3,4-oxadiazol-2-yl)cyclohexyl)butanamide], in experiment [1], the IC50 was found to be 0.0167 µM. In addition, in experiment [2] (SW480 cells, 24 hours), the EC50 was found to be 0.0739 µM.

Turning to `O=C(CCc1cc(=O)n2ccccc2n1)N[C@H]1CC[C@H](c2nnc(-c3ccccc3)o2)CC1` [Example 38, 3-(4-oxo-4H-pyrido[1,2-a]pyrimidin-2-yl)-N-((1r,4r)-4-(5-phenyl-1,3,4-oxadiazol-2-yl)cyclohexyl) propanamide], the IC50 in experiment [1] is 1.43 µM. For the same compound, in experiment [2] (SW480 cells, 24 hours), the EC50 is 8.19 µM.

As to `O=C(CCCc1nc2ccccc2c(=O)[nH]1)N[C@H]1CC[C@H](Oc2ccccc2)C1` [Example 65, 4-(4-oxo-3,4-dihydroquinazolin-2-yl)-N-((1S,3S)-3-phenoxycyclopentyl)butanamide+4-(4-oxo-3,4-dihydroquinazolin-2-yl)-N-((1R,3R)-3-phenoxycyclopentyl)butanamide], the IC50 in experiment [1] is over 10 µM.

On to `O=C(CCCc1nc2ccccc2c(=O)[nH]1)N1CCN(c2noc3ccccc23)CC1` [Example 71, 2-(4-(4-(benzo[d]isoxazol-3-yl)piperazin-1-yl)-4-oxobutyl)quinazolin-4(3H)-one trifluoroacetic acid], for which the IC50 in experiment [1] was determined as 3.44 µM. Further, in experiment [2] (SW480 cells, 24 hours), the EC50 is 4.17 µM.

As for `O=C(CCCc1nc2ccccc2c(=O)[nH]1)N1CCC(c2noc3ccc(F)cc23)CC1` [Example 72, 2-(4-(4-(5-fluorobenzo[d]isoxazol-3-yl)piperidin-1-yl)-4-oxobutyl)quinazolin-4(3H)-one trifluoroacetic acid], in experiment [1], the IC50 turned out to be 1.13 µM. Also, the EC50 in experiment [2] (SW480 cells, 24 hours) is 0.63 µM.

On to `O=C(CCCc1nc2ccccc2c(=O)[nH]1)N[C@H]1CC[C@H](n2c(=O)[nH]c3ccccc32)CC1` [Example 73, N-((1r,4r)-4-(2-oxo-2,3-dihydro-1H-benzo[d]imidazol-1-yl)cyclohexyl)-4-(4-oxo-3,4-dihydroquinazolin-2-yl)butanamide trifluoroacetic acid], for which the IC50 in experiment [1] is 0.021 µM. Also, the EC50 in experiment [2] (SW480, 24 h) was 0.0296 µM.

On to `O=C(CCCc1nc2ccccc2c(=O)[nH]1)N1CCC(n2nnc3ccccc32)CC1` [Example 75, 2-(4-(4-(1H-benzo[d][1,2,3]triazol-1-yl)piperidin-1-yl)-4-oxobutyl)quinazolin-4(3H)-one trifluoroacetic acid], for which the IC50 in experiment [1] worked out at 0.623 µM. Moreover, in experiment [2] (SW480 cells, 24 hours), the EC50 is 0.383 µM.

Consider `O=C(CCc1nc2ccccc2c(=O)[nH]1)N[C@H]1CC[C@H](n2c(=O)oc3ccccc32)CC1` [Example 80], for which the IC50 in experiment [1] amounted to 0.0423 µM. For the same compound, the EC50 in experiment [2] (SW480 cells, 24 hours) came out at 0.225 µM.

Take `O=C(CCc1nc2ccccc2c(=O)[nH]1)N[C@H]1CC[C@H](c2nnc(C3CCOCC3)o2)CC1` [Example 135, 3-(4-oxo-3,4-dihydroquinazolin-2-yl)-N-((1r,4r)-4-(5-(tetrahydro-2H-pyran-4-yl)-1,3,4-oxadiazol-2-yl)cyclohexyl)propanamide]: the IC50 in experiment [1] was over 10 µM.
